Test results published in ChEMBL document CHEMBL1150268, “Novel potent and selective thrombin inhibitors based on a central 1,4-benzoxazin-3(4H)-one scaffold” (J Med Chem, 2008).

What was measured:
[1] = target: Prothrombin (Homo sapiens, UniProt P00734); assay: Inhibition of thrombin
[2] = target: Coagulation factor X (Homo sapiens, UniProt P00742); assay: Inhibition of factor 10a
[3] = Inhibition of trypsin
[4] = Selectivity for trypsin over thrombin
[5] = Selectivity for factor 10a over thrombin

Sequence of Coagulation factor X (P00742 41-179 limits assumed): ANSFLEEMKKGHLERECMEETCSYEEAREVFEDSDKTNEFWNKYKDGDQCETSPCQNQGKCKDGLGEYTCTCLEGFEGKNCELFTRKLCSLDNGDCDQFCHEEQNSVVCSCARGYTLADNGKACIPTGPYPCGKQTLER
Sequence of Coagulation factor X (P00742 235-488 limits assumed): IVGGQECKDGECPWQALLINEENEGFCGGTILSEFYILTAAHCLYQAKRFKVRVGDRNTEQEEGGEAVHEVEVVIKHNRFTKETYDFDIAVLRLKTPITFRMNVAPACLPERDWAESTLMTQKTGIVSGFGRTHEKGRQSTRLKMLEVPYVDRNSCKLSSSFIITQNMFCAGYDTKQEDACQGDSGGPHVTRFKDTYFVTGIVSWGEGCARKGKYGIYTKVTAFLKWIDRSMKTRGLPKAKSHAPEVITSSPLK

Row | Structure (SMILES) | Ki [1] [µM] | Ki [2] [µM] | Ki [3] [µM] | Ratio Ki [4] | Ratio Ki [5]
1 | COC(=O)C(Cc1ccccc1)C(=O)Nc1ccc2c(c1)OC(Cc1ccc(C(=N)N)cc1)C(=O)N2C (stereo not given) | 2.73 | 58.7 | 11.2 | 4.1 | 22
2 | CN1C(=O)C(Cc2ccc(C(=N)N)cc2)Oc2cc(N(Cc3ccccc3)C(=O)C(=O)O)ccc21 (stereo not given) | 0.011 | 9.27 | 10.1 | 910 | 835
3 | CN1C(=O)C(Cc2ccc(C(=N)N)cc2)Oc2cc(NC(=O)C(Cc3ccccc3)C(=O)O)ccc21 (stereo not given) | 2.94 | 33.2 | 5.13 | 1.7 | 11
4 | CN1C(=O)C(Cc2ccc(C(=N)N)cc2)Oc2cc(N(Cc3ccccc3)C(=O)CCC(=O)O)ccc21 (stereo not given) | 0.0065 | 15.9 | 7.41 | 1130 | 2430
5 | CN1C(=O)C(Cc2ccc(C(=N)N)cc2)Oc2cc(N(Cc3ccccc3)C(=O)CC(=O)O)ccc21 (stereo not given) | 0.0026 | 139 | 298 | 112000 | 52500

More lines, in order of falling Ki [1], values ahead:

Row | Ki [1] [µM] | Ki [2] [µM] | Ki [3] [µM] | Ratio Ki [4] | Ratio Ki [5] | Structure (SMILES)
6 | 0.0058 | 1.05 | 3.1 | 535 | 181 | CCOC(=O)CCC(=O)N(Cc1ccccc1)c1ccc2c(c1)OC(Cc1ccc(C(=N)N)cc1)C(=O)N2C (stereo not given)
7 | 0.0036 | 1.94 | 4.29 | 1190 | 537 | CCOC(=O)C(=O)N(Cc1ccccc1)c1ccc2c(c1)OC(Cc1ccc(C(=N)N)cc1)C(=O)N2C (stereo not given)
8 | 0.0034 | 5.71 | 3.82 | 1130 | 1690 | COC(=O)CC(=O)N(Cc1ccccc1)c1ccc2c(c1)OC(Cc1ccc(C(=N)N)cc1)C(=O)N2C (stereo not given)
